Assay results reported in ChEMBL document CHEMBL6134827, “The discovery of novel antimicrobial peptides against drug-resistant bacteria based on fragments fusion strategy” (Eur J Med Chem, 2025).
Active and inactive are the calls of the source. The calls are words filed in the database; no cut-off is given here. Positions of bridges follow the written chain, without caps; N, C: chain ends. Non-standard residues stand in square brackets, D forms with d. Residues, ends and D or L forms follow the SMILES beside them. *: point of attachment. X1 = CC[C@H](C)CCCCC(=O)*; Dab = NCC[C@H](N)C(=O)O

Experiments:
Escherichia coli [1] = experiment: Antimicrobial activity against Escherichia coli ATCC 25922 assessed as inhibition of visible microbial growth incubated for 18 hrs by broth microdilution method; format: functional
Escherichia coli [2] = experiment: Antimicrobial activity against multidrug resistant Escherichia coli assessed as inhibition of visible microbial growth incubated for 18 hrs by broth microdilution method; format: functional
Acinetobacter baumannii = experiment: Antimicrobial activity against multidrug resistant Acinetobacter baumannii assessed as inhibition of visible microbial growth incubated for 18 hrs by broth microdilution method; format: functional
Staphylococcus aureus [3] = experiment: Antimicrobial activity against Staphylococcus aureus ATCC 29213 assessed as inhibition of visible microbial growth incubated for 18 hrs by broth microdilution method; format: functional
Staphylococcus aureus [4] = experiment: Antimicrobial activity against multidrug resistant Staphylococcus aureus assessed as inhibition of visible microbial growth incubated for 18 hrs by broth microdilution method; format: functional
[5] = Cytotoxicity against HEK293T cells assessed as survival rate at 64 microg/ml measured after 24 hrs by CCK-8 assay relative to control; format: toxicity, cell-based, HEK-293T; settings: human, at 64 µg/mL, read-out: Survival
[6] = Cytotoxicity against human BEAS-2B cells assessed as survival rate at 64 microg/ml measured after 24 hrs by CCK-8 assay relative to control; format: toxicity, cell-based; settings: at 64 µg/mL, read-out: Survival
Pseudomonas aeruginosa [7] = experiment: Antimicrobial activity against multidrug resistant Pseudomonas aeruginosa assessed as inhibition of visible microbial growth incubated for 18 hrs by broth microdilution method; format: functional
[8] = Hemolytic activity in human red blood cell assessed as hemolysis at 128 microg/ml measured after 1 hrs by microplate reader assay relative to control; format: toxicity, cell-based, Erythrocyte; settings: red blood cells, at 128 µg/mL, read-out: Activity
[9] = Cytotoxicity against human BEAS-2B cells assessed as inhibition of cell growth measured after 24 hrs by CCK-8 assay; format: toxicity, cell-based
[10] = Cytotoxicity against human LO2 cells assessed as survival rate at 64 microg/ml measured after 24 hrs by CCK-8 assay relative to control; format: toxicity, cell-based, L02; settings: at 64 µg/mL, read-out: Survival
[11] = Nephrotoxicity in female C57BL/6 mouse assessed as presence of flocculents in lumen at 20 mg/kg, ip administered daily and measured for 5 days by H and E staining based analysis; format: toxicity, organism-based; settings: in vivo, 120 h, time 5 day
[12] = Toxicity in female C57BL/6 mouse assessed as histopathological change in kidney at 20 mg/kg, ip administered daily and measured for 5 days by H and E staining based analysis; format: organism-based; settings: in vivo, 120 h, time 5 day
[13] = Nephrotoxicity in female C57BL/6 mouse assessed as increase in BUN level at 15 mg/kg, ip administered daily and measured for 5 days; format: toxicity, organism-based; settings: in vivo, 120 h, time 5 day
[14] = Nephrotoxicity in female C57BL/6 mouse assessed as tubular dilation at 20 mg/kg, ip administered daily and measured for 5 days by H and E staining based analysis; format: toxicity, organism-based; settings: in vivo, 120 h, time 5 day
Pseudomonas aeruginosa [15] = experiment: Drug resistance, ratio of MIC for multidrug resistant Pseudomonas aeruginosa after 14 passages to MIC for multidrug resistant Pseudomonas aeruginosa after first exposure; format: functional
Staphylococcus aureus [16] = experiment: Drug resistance, ratio of MIC for Staphylococcus aureus ATCC 29213 after 14 passages to MIC for Staphylococcus aureus ATCC 29213 after first exposure; format: functional
Staphylococcus aureus [17] = experiment: Drug resistance, ratio of MIC for multidrug resistant Staphylococcus aureus after 4 passages to MIC for multidrug resistant Staphylococcus aureus after first exposure; format: functional
Pseudomonas aeruginosa [18] = experiment: Drug resistance, ratio of MIC for multidrug resistant Pseudomonas aeruginosa after 5 passages to MIC for multidrug resistant Pseudomonas aeruginosa after first exposure; format: functional
Staphylococcus aureus [19] = experiment: Drug resistance, ratio of MIC for multidrug resistant Staphylococcus aureus after 10 passages to MIC for multidrug resistant Staphylococcus aureus after first exposure; format: functional
Staphylococcus aureus [20] = experiment: Drug resistance, ratio of MIC for Staphylococcus aureus ATCC 29213 after 4 passages to MIC for Staphylococcus aureus ATCC 29213 after first exposure; format: functional
L02 = experiment: Cytotoxicity against human LO2 cells assessed as reduction in cell viability at 2 to 64 microg/mL measured after 24 hrs by CCK-8 assay; format: toxicity, cell-based; settings: l02, 24 h, dose 2-64 µg/ml
[21] = Stability in 25% human plasma assessed as compound remaining measured after 24 hrs by RP-HPLC analysis; format: ADME, cell-free; settings: 25% plasma, read-out: Stability
Cell membrane [22] = experiment: Induction of cytoplasmic membrane depolarization in multidrug resistant Pseudomonas aeruginosa assessed as increase in fluorescence intensity measured for 12 min by DISC3-5 dye based fluorescence analysis; format: subcellular; settings: dose 4-32 µg/ml
Staphylococcus aureus [23] = experiment: Antibacterial activity against multidrug resistant Staphylococcus aureus assessed as reduction in bacterial growth at 32 microg/mL measured after 1.5 hrs by bactericidal kinetic assay; format: functional, organism-based; settings: dose 32.0 µg/ml
BEAS-2B = experiment: Cytotoxicity against human BEAS-2B cells assessed as reduction in cell viability at 2 to 64 microg/mL measured after 24 hrs by CCK-8 assay; format: toxicity, cell-based; settings: dose 2-64 µg/ml
Cell membrane [24] = experiment: Induction of outer cell membrane permeabilization in multidrug resistant Pseudomonas aeruginosa assessed as increase in fluorescence intensity at >16 microg/ml measured for 12 mins by NPN uptake assay; format: subcellular; settings: dose > 16.0 µg/ml
Cell membrane [25] = experiment: Induction of outer cell membrane permeabilization in multidrug resistant Pseudomonas aeruginosa assessed as increase in fluorescence intensity measured for 12 mins by NPN uptake assay; format: subcellular; settings: dose 4-32 µg/ml
Pseudomonas aeruginosa [26] = experiment: Antibacterial activity against multidrug resistant Pseudomonas aeruginosa assessed as reduction in bacterial growth at 32 microg/mL measured within 30 min by bactericidal kinetic assay relative to control; format: functional; set-up: scale not given: the % may be the effect or the level left; settings: dose 32 µg/ml, 0.5 h
Bacillus subtilis = experiment: Antibacterial activity against Bacillus subtilis; format: functional

What does the source list for `CC(C)C[C@H](NC(=O)CN)C(=O)N[C@@H](CCN)C(=O)N[C@@H](CCN)C(=O)N[C@@H](Cc1c[nH]c2ccccc12)C(=O)N[C@@H](CC(C)C)C(=O)N[C@@H](CCN)C(=O)N[C@@H](CCN)C(=O)N[C@@H](Cc1ccccc1)C(=O)N[C@@H](CCN)C(=O)N[C@@H](CCN)C(=O)N[C@@H](Cc1ccccc1)C(=O)N[C@@H](Cc1c[nH]c2ccccc12)C(=O)O` (H-GL[Dab][Dab]WL[Dab][Dab]F[Dab][Dab]FW-OH)?
MIC (Escherichia coli [1]): 5.1 µM; MIC (Escherichia coli [2]): 10.2 µM; MIC (Acinetobacter baumannii): 5.1 µM; MIC (Staphylococcus aureus [3]): 5.1 µM; MIC (Staphylococcus aureus [4]): 5.1 µM; viability at 24 h, 64 µg/mL [5]: > 80%; viability at 24 h, 64 µg/mL [6]: > 80%; MIC (Pseudomonas aeruginosa [7]): 10.2 µM; hemolysis at 1 h, 128 µg/mL [8]: < 10%; CC50 at 24 h [9]: > 64 µg/mL; viability at 24 h, 64 µg/mL [10]: > 80%

What does the source list for `CC(C)CCCCC(=O)N[C@@H](CCN)C(=O)N[C@H](C(=O)N[C@@H](CCN)C(=O)N[C@H]1CCNC(=O)[C@H]([C@@H](C)O)NC(=O)[C@H](CCN)NC(=O)[C@H](CCN)NC(=O)[C@H](CC(C)C)NC(=O)[C@@H](Cc2ccccc2)NC(=O)[C@H](CCN)NC1=O)[C@@H](C)O.CC[C@H](C)CCCCC(=O)N[C@@H](CCN)C(=O)N[C@H](C(=O)N[C@@H](CCN)C(=O)N[C@H]1CCNC(=O)[C@H]([C@@H](C)O)NC(=O)[C@H](CCN)NC(=O)[C@H](CCN)NC(=O)[C@H](CC(C)C)NC(=O)[C@@H](Cc2ccccc2)NC(=O)[C@H](CCN)NC1=O)[C@@H](C)O` (X1-[Dab]T[Dab][Dab][Dab][dF]L[Dab][Dab]T; lactam 4-C) [listing 1 of 2 here]?
Activity [11]: Toxic; Activity [12]: Non-toxic; Activity [13]: Toxic; Activity [14]: Toxic

Which results are given for `CC(C)CCCCC(=O)N[C@@H](CCN)C(=O)N[C@H](C(=O)N[C@@H](CCN)C(=O)N[C@H]1CCNC(=O)[C@H]([C@@H](C)O)NC(=O)[C@H](CCN)NC(=O)[C@H](CCN)NC(=O)[C@H](CC(C)C)NC(=O)[C@@H](Cc2ccccc2)NC(=O)[C@H](CCN)NC1=O)[C@@H](C)O.CC[C@H](C)CCCCC(=O)N[C@@H](CCN)C(=O)N[C@H](C(=O)N[C@@H](CCN)C(=O)N[C@H]1CCNC(=O)[C@H]([C@@H](C)O)NC(=O)[C@H](CCN)NC(=O)[C@H](CCN)NC(=O)[C@H](CC(C)C)NC(=O)[C@@H](Cc2ccccc2)NC(=O)[C@H](CCN)NC1=O)[C@@H](C)O` (X1-[Dab]T[Dab][Dab][Dab][dF]L[Dab][Dab]T; lactam 4-C) [listing 2 of 2 here]?
MIC (Escherichia coli [1]): 0.4 µM; MIC (Escherichia coli [2]): 0.8 µM; MIC (Acinetobacter baumannii): 0.8 µM; Ratio (Pseudomonas aeruginosa [15]): 4; MIC (Pseudomonas aeruginosa [7]): 2 µg/mL

Which results are given for `C[C@H]1COc2c(N3CCN(C)CC3)c(F)cc3c(=O)c(C(=O)O)cn1c23` [LEVOFLOXACIN ANHYDROUS]?
Ratio (Staphylococcus aureus [16]): 512; Ratio (Staphylococcus aureus [17]): 4; Ratio (Pseudomonas aeruginosa [18]): 16

Which results are given for `CN[C@H](CC(C)C)C(=O)N[C@H]1C(=O)N[C@@H](CC(N)=O)C(=O)N[C@H]2C(=O)N[C@H]3C(=O)N[C@H](C(=O)N[C@H](C(=O)O)c4cc(O)cc(O)c4-c4cc3ccc4O)[C@H](O)c3ccc(c(Cl)c3)Oc3cc2cc(c3O[C@@H]2O[C@H](CO)[C@@H](O)[C@H](O)[C@H]2O[C@H]2C[C@](C)(N)[C@H](O)[C@H](C)O2)Oc2ccc(cc2Cl)[C@H]1O` [VANCOMYCIN]?
MIC (Staphylococcus aureus [3]): 0.7 µM; Ratio (Staphylococcus aureus [19]): 2; MIC (Staphylococcus aureus [4]): 0.7 µM; Ratio (Staphylococcus aureus [20]): 4

With H-GIGKFLKKAKKFGKAFVKILKK-OH as the compound, how does the Activity (L02) read?
The Activity was “Toxic”.

And the remaining at 24 h [21]?
Its remaining at 24 h is 34%.

What about the Activity (Cell membrane [22]) of the same compound?
Its Activity is “Dose-dependent-effect”.

And the MIC (Escherichia coli [1])?
The MIC was 3.2 µM.

What about the MIC (Escherichia coli [2]) of the same compound?
The MIC was 3.2 µM.

What about the MIC (Acinetobacter baumannii) of the same compound?
Its MIC is 1.6 µM.

What about the Activity (Staphylococcus aureus [23]) of the same compound?
The Activity was “Not active; Bacterial Regrowth Observed”.

And the MIC (Staphylococcus aureus [3])?
The MIC was 12.9 µM.

And the Ratio (Pseudomonas aeruginosa [15])?
Its Ratio is 4.

And the Activity (BEAS-2B)?
Its Activity is “Toxic”.

What about the Activity (Cell membrane [24]) of the same compound?
Its Activity is “Active”.

What about the Ratio (Staphylococcus aureus [17]) of the same compound?
The Ratio was 8.

What about the Activity (Cell membrane [25]) of the same compound?
Its Activity is “Dose-dependent-effect”.

And the MIC (Staphylococcus aureus [4])?
Its MIC is 12.9 µM.

What about the Ratio (Staphylococcus aureus [20]) of the same compound?
Its Ratio is 8.

What about the MIC (Pseudomonas aeruginosa [7]) of the same compound?
Its MIC is 3.2 µM.

And the hemolysis at 1 h, 128 µg/mL [8]?
Its hemolysis at 1 h, 128 µg/mL is under 10%.

And the CC50 at 24 h [9]?
The CC50 at 24 h was 45.9 µg/mL.

What about the Activity (Pseudomonas aeruginosa [26]) of the same compound?
Its Activity is 100%.

Which MIC (Escherichia coli [1]) does the source give for H-GLRKRLRKFFNKIKF-OH here?
The MIC was 8.2 µM.

And the MIC (Escherichia coli [2])?
The MIC was 4.1 µM.

What about the MIC (Acinetobacter baumannii) of the same compound?
The MIC was 16.4 µM.

What about the MIC (Staphylococcus aureus [3]) of the same compound?
The MIC was 32.8 µM.

What about the MIC (Staphylococcus aureus [4]) of the same compound?
Its MIC is 65.7 µM.

And the MIC (Bacillus subtilis)?
Its MIC is over 3 µM.

And the MIC (Pseudomonas aeruginosa [7])?
Its MIC is 16.4 µM.

For H-GLRKWLRKFKKFW-OH, which Activity (L02) is on record?
Its Activity is “Toxic”.

And the MIC (Escherichia coli [1])?
The MIC was 8.9 µM.

What about the MIC (Escherichia coli [2]) of the same compound?
The MIC was 4.5 µM.

And the MIC (Acinetobacter baumannii)?
Its MIC is 4.5 µM.

What about the MIC (Staphylococcus aureus [3]) of the same compound?
The MIC was 17.8 µM.

And the Activity (BEAS-2B)?
Its Activity is “Toxic”.

And the MIC (Staphylococcus aureus [4])?
The MIC was 17.8 µM.

And the MIC (Pseudomonas aeruginosa [7])?
Its MIC is 4.5 µM.

And the hemolysis at 1 h, 128 µg/mL [8]?
The hemolysis at 1 h, 128 µg/mL was under 10%.

And the CC50 at 24 h [9]?
Its CC50 at 24 h is 38.4 µg/mL.
